Assay results: patent US20010056184A1, “Pipecolinic acid derivatives, method of manufacturing the same and therapeutic agents containing these compounds” (priority 2000, published 2001)

How the values were obtained:
MMP-9 (gelatinase B) = molecular target: T1, MMP-9 (gelatinase B) (Homo sapiens, UniProt P14780); assay: MMP-9 (gelatinase B) inhibitory activities, fluorogenic substrate enzyme assay; type: biochemical; details: for IC50: 42° C., 3 h, substrate 10 μM
T1 construct: MMP-9, derived human fibrosarcome (Yagai Co. Ltd.), were used as enzyme respectively; purchased Yagai Co. Ltd; host or cells: human fibrosarcoma
Method: (§1) Examination 2: MMP-2 (gelatinase A) and MMP-9 (gelatinase B) inhibitory activities.
(§2) Pro MMP-2 was obtained from culture medium separated from human pro-MMP-2 cDNA tranfected COS-1 cells. Pro MMP-2 activated by 1 mM (4-aminophenyl) mercury acetic acid and MMP-9, derived human fibrosarcome (Yagai Co. Ltd.), were used as enzyme respectively. Inhibition of both enzyme activities were estimated by enzyme assay using MOCAc-Pro-Leu-Gly-Leu-A2pr(Dnp)-Ala-Arg-NH2 (Peptide Research Center, 3163-v) as substrate. Thus, MMP-2 or MMP-9 (0.01 U/ml), test compound (several concentrations), and the substrate (10 μM) were incubated in 50 mM Tris - HCl buffer (pH 7.4) containing 0.2M NaCl, 10 mM CaCl2, 0.02% NaN3, and 0.05% Brij 35 at 42° C. for 2 h (MMP-2), 3 h (MMP-9) respectively. Inhibition of degradation of substrate in the presence of compound was determined by comparison with the degradation of substrate in the absence of compound, and concentration of 50% inhibition (IC50 value) was calculated.

[1] = molecular target: T2, human fibroblasts derived MMP-1 (type I collagenase) (Homo sapiens, UniProt P03956); assay: MMP-1 (type I collagenase) inhibitory activities, fluorogenic substrate enzyme assay; type: biochemical; details: for IC50: 37° C., 4 h, substrate 10 μM; for inhibition at 10 µM: at 10^−5M, NE means no effect, read-out: MMP-1 inhibition percent
T2 construct: human fibroblasts derived MMP-1 (Yagai Co. Ltd.) as enzyme; purchased Yagai Co. Ltd; host or cells: human fibroblasts
T2 sequence (P03956 100-469): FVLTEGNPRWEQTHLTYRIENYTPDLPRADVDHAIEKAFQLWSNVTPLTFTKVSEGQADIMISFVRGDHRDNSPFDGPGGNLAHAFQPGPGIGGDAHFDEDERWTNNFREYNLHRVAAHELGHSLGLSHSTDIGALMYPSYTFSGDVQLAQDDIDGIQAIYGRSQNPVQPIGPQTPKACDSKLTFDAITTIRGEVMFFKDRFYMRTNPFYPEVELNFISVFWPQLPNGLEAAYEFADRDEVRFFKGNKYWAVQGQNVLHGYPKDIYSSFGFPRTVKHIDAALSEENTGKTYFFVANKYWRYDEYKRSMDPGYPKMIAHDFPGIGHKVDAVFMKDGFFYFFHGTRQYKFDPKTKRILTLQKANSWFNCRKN
Method: Examination 1: MMP-1 (type I collagenase) inhibitory activities.
Inhibitory activities of MMP-1 (type I collagenase) activities were estimated by enzyme assay using human fibroblasts derived MMP-1 (Yagai Co. Ltd.) as enzyme, and MOCAc-Pro-Leu-Gly-Leu-A2pr(Dnp)-Ala-Arg-NH2 (Peptide Research Center, 3163-v) as substrate. Thus, MMP-1 (0.01 U/ml), test compound (10^−10˜10^−5 M), and the substrate (10 μM) were incubated in 50 mM Tris-HCl buffer (pH 7.4) containing 0.2M NaCl, 10 mM CaCl2, 0.02% NaN3, and 0.05% Brij 35 at 37° C. for 4 h. The reaction was stopped by adding of 4 volumes of sodium acetate buffer (pH 4.0), and the degradation of substrate was calculated by measurement with a fluorescence intensity (λ ex 328 nm, λ em 393 nm). Inhibition of degradation of substrate in the presence of compound was determined by comparison with the degradation percent of substrate in the absence of compound, and concentration of 50% inhibition (IC50 value) was calculated.

MMP-2 (gelatinase A) = molecular target: T3, MMP-2 (gelatinase A) (Homo sapiens, UniProt P08253); assay: MMP-2 (gelatinase A) inhibitory activities, fluorogenic substrate enzyme assay; type: biochemical; details: 42° C., 2 h, substrate 10 μM
T3 construct: made in house; host or cells: COS-1 cells (secreted into culture medium)
T3 sequence (P08253 110-660): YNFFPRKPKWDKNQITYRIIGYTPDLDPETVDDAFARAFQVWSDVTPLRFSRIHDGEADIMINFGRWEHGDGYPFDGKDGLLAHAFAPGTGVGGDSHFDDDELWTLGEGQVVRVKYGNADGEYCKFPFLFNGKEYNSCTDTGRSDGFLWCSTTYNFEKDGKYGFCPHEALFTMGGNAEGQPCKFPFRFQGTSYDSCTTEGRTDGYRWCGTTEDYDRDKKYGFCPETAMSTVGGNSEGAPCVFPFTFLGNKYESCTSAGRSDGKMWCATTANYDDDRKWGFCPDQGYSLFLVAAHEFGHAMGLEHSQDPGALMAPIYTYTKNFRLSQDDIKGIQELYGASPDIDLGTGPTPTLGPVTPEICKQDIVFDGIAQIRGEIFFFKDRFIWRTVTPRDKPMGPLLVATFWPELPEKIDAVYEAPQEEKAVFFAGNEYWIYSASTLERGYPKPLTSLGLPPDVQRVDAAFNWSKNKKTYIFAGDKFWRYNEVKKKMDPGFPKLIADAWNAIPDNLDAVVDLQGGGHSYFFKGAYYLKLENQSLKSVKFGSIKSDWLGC
Method: as §1, §2

Δ MT1-MMP (Δ MMP-14) = molecular target: T4, Δ MT1-MMP (Δ MMP-14) (Homo sapiens, UniProt P50281); assay: Δ MT1-MMP (Δ MMP-14) inhibitory activities, fluorogenic substrate enzyme assay; type: biochemical; details: 37° C., 30 min, substrate 10 μM; read-out: ΔMMP-14 IC50
T4 construct: ProMT1-MMP cDNA encoded extracellular domain of pro Δ MT1-MMP was tranfected E. coli BL21DE3; made in house; host or cells: E. coli BL21DE3 (inclusion bodies, 8M urea, ion exchange)
Description: Examination 3: Δ MT1-MMP (Δ MMP-14) inhibitory activities.
ProMT1-MMP cDNA encoded extracellular domain of pro Δ MT1-MMP was tranfected E. coli BL21DE3, pro Δ MT1-MMP collected as inclusion body was solved using 8M urea, and it was pulified by ion exchenge column chlomatography. Inhibition of enzyme activities were estimated by enzyme assay using activated Δ MT1-MMP, obtained from activation of pro Δ MT1-MMP by 10 μ/ml tripsine, and MOCAc-Pro-Leu-Gly-Leu-A2pr(Dnp)-Ala-Arg-NH2 (Peptide Research Center, 3163-v) as substrate. Thus, Δ MT1-MMP, test compound (several concentrations), and the substrate (10 μM) were incubated in 50 mM Tris - HCl buffer (pH 7.4) containing 0.2M NaCl, 10 mM CaCl2, 0.02% NaN3, 0.05% Brij 35, and 10 μM leuipeputine at 37° C. for 30 min. The reaction was stopped by adding of 4 volumes of sodium acetate buffer (pH 4.0), and the degradation of substrate was calculated by measurement with a fluorescence intensity (λ ex 328 nm, λ em 393 nm). Inhibition of degradation of substrate in the presence of compound was determined by comparison with the degradation of substrate in the absence of compound, and concentration of 50% inhibition (IC50 value) was calculated.

T1 sequence (P14780 94-707): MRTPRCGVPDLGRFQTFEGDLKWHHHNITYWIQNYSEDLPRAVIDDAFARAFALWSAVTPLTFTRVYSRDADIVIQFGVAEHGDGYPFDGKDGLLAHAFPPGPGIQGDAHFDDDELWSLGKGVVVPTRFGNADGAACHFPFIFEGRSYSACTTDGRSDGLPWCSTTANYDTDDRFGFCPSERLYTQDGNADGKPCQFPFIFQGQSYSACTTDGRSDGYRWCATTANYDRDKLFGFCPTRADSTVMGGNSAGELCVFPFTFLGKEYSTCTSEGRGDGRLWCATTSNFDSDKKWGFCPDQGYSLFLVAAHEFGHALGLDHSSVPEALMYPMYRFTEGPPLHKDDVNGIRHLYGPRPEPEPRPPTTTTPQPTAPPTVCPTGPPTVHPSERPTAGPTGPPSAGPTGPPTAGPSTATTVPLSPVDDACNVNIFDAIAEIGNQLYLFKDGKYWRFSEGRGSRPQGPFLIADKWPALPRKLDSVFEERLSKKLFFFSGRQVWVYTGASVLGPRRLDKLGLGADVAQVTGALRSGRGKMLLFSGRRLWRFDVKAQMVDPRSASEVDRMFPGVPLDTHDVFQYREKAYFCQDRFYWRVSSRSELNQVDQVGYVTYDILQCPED

SMILES: CCN[C@@H]1CCN(S(=O)(=O)c2ccc(-c3ccc(OC)cc3)cc2)[C@@H](C(=O)O)C1 [Compound 27, (2R, 4R)-2-Carboxy-4-ethylamino-1-[4-(4-methoxyphenyl)benzenesulfonyl]-piperidine]
- melting point: > 250 °C

SMILES: COc1ccc(C(=O)N[C@@H]2CCN(S(=O)(=O)c3ccc(-c4ccc(OC)cc4)cc3)[C@@H](C(=O)O)C2)cc1 [Compound 4, (2R, 4R)-2-Carboxy-4-(4-methoxybenzoylamino)-1-[4-(4-methoxyphenyl)benzenesulfonyl)-piperidine]
- melting point: > 250 °C

SMILES: COc1ccc(C(=O)N[C@@H]2CCN(S(=O)(=O)c3cccs3)[C@@H](C(=O)NO)C2)cc1 [Compound 50, (2R, 4R)-2-Hydroxyaminocarbonyl-4-(4-methoxybenzoylamino)-1-(2-thiophenesulfonyl)-piperidine]
- IC50 (MMP-9 (gelatinase B)): 44 nM
- IC50 [1]: 8400 nM
- IC50 (MMP-2 (gelatinase A)): 73 nM
- IC50 (Δ MT1-MMP (Δ MMP-14)): 35 nM

SMILES: COc1ccc(-c2ccc(S(=O)(=O)N3CC[C@@H](NC(=O)c4c[nH]c5ccccc45)C[C@@H]3C(=O)NO)cc2)cc1 [Compound 76, (2R, 4R)-2-Hydroxyaminocarbonyl-4-(3-indolecarbonylamino)-1-[4-(4-methoxyphenyl)benzenesulfonyl]-piperidine]
- IC50 (MMP-9 (gelatinase B)): 21 nM
- inhibition at 10 µM [1]: 12.9%
- IC50 (MMP-2 (gelatinase A)): 12 nM
- IC50 (Δ MT1-MMP (Δ MMP-14)): 96 nM

SMILES: COc1ccc(-c2ccc(S(=O)(=O)N3CC[C@@H](NC(=O)CCC(C)C)C[C@@H]3C(=O)NO)cc2)cc1 [Compound 49, (2R, 4R)-2-Hydroxyaminocarbonyl-1-[4-(4-methoxyphenyl)benzenesulfonyl]-4-(4-methylpentanoylamino)-piperidine]
- IC50 (MMP-9 (gelatinase B)): 0.26 nM
- IC50 [1]: 2600 nM
- IC50 (MMP-2 (gelatinase A)): 0.25 nM
- IC50 (Δ MT1-MMP (Δ MMP-14)): 130 nM

SMILES: O=C(N[C@@H]1CCN(S(=O)(=O)c2ccc(-c3ccc(O)cc3)cc2)[C@@H](C(=O)NO)C1)c1ccccc1 [Compound 60, (2R, 4R)-4-Benzoylamino-2-hydroxyaminocarbonyl-1-[4-(4-hydroxyphenyl)benzenesulfonyl]-piperidine]
- IC50 (MMP-9 (gelatinase B)): 890 nM
- IC50 [1]: 4900 nM
- IC50 (MMP-2 (gelatinase A)): 2.9 nM
- IC50 (Δ MT1-MMP (Δ MMP-14)): 130 nM

SMILES: CC(C)CCC(=O)N[C@@H]1CCN(S(=O)(=O)c2ccc([N+](=O)[O-])cc2)[C@@H](C(=O)NO)C1 [Compound 77, (2R, 4R)-2-Hydroxyaminocarbonyl-4-(4-methylpentanoylamino)-1-(4-nitrobenzenesulfonyl)-piperidine]
- IC50 (MMP-9 (gelatinase B)): 740 nM
- inhibition at 10 µM [1]: 32.2%
- IC50 (MMP-2 (gelatinase A)): 480 nM
- IC50 (Δ MT1-MMP (Δ MMP-14)): 2300 nM

SMILES: COc1ccc(S(=O)(=O)N2CC[C@H](NC(C)=O)C[C@H]2C(=O)NO)cc1 [Compound 81, (2S, 4S)-4-Acetylamino-2-hydroxyaminocarbonyl-1-(4-methoxybenzenesulfonyl)-piperidine]
- IC50 (MMP-9 (gelatinase B)): 390 nM
- inhibition at 10 µM [1]: 37.3%
- IC50 (MMP-2 (gelatinase A)): 220 nM
- IC50 (Δ MT1-MMP (Δ MMP-14)): 89 nM

SMILES: COc1ccc(CN[C@@H]2CCN(S(=O)(=O)c3ccc(-c4ccc(OC)cc4)cc3)[C@@H](C(=O)NO)C2)cc1 [Compound 62, (2R, 4R)-2-Hydroxyaminocarbonyl-4-(4-methoxybenzylamino)-1-[4-(4-methoxyphenyl)benzenesulfonyl]-piperidine]
- IC50 (MMP-9 (gelatinase B)): 3.2 nM
- IC50 [1]: 870 nM
- IC50 (MMP-2 (gelatinase A)): 0.93 nM
- IC50 (Δ MT1-MMP (Δ MMP-14)): 45 nM

SMILES: COc1ccc(-c2ccc(S(=O)(=O)N3CC[C@@H](NC(C)=O)C[C@@H]3C(=O)NO)cc2)cc1 [Compound 64, (2R, 4R)-4-Acetylamino-2-hydroxyaminocarbonyl-1-[4-(4-methoxyphenyl)benzenesulfonyl]-piperidine]
- IC50 (MMP-9 (gelatinase B)): 0.72 nM
- IC50 [1]: 650 nM
- IC50 (MMP-2 (gelatinase A)): 0.91 nM
- IC50 (Δ MT1-MMP (Δ MMP-14)): 8.9 nM

SMILES: CC(C)CCC(=O)N[C@@H]1CCN(S(=O)(=O)c2ccccc2-c2ccc(O)cc2)[C@@H](C(=O)NO)C1 [Compound 55, (2R, 4R)-2-Hydroxyaminocarbonyl-1-[2-(4-hydroxyphenyl)benzenesulfonyl]-4-(4-methylpentanoylamino)-piperidine]
- inhibition at 10 µM (MMP-9 (gelatinase B); at 10^−5M, read-out: MMP-9 inhibition percent): 34.8%
- inhibition at 10 µM [1]: 29.5%
- IC50 (MMP-2 (gelatinase A)): 2400 nM
- IC50 (Δ MT1-MMP (Δ MMP-14)): 3000 nM
